According to US20250268960A1, “COMPOSITION FOR PREVENTION AND TREATMENT OF OBESITY OR INSULIN RESISTANCE SYNDROME COMPRISING LACTOBACILLUS PLANTARUM HAC03 AND RUTIN” (HANDONG GLOBAL UNIVERSITY INDUSTRY-ACADEMIC COOPERATION …, priority 2023, published 2025):

Test system: PR/SET domain 16 (PRDM16)
Test: qPCR expression of thermogenesis gene PRDM16 in brown adipose tissue
Format: in vivo, C57BL6 mice
Details: mRNA, brown adipose tissue (BAT), high-fat diet mice; compared to HFD group
Method: Five-week-old male C57BL6 mice were purchased and acclimated for one week. Then, the mice in each group (n=10) were fed a low-fat diet or high-fat diet. After first allowing them to consume a low-fat diet or high-fat diet for a week, the mice in each group were orally administered with Lactobacillus plantarum HAC03, quercetin, or rutin once a day for 14 weeks.
Then, the expression levels of lipogenesis-related genes were measured at the mRNA level through qPCR.
Specifically, the colons of mice in each experimental group were homogenized, dissolved in Trizol® (RNA extraction buffer, Thermo Fisher), and RNA was extracted according to the protocol provided by the manufacturer. The extracted RNA was quantified, and an equal amount of RNA was synthesized into cDNA by reverse transcription using the SuperiorScript III cDNA synthesis Kit (Enzynomics, Daejeon, South Korea). Thereafter, real-time PCR was performed using each gene-specific primer in Table 3, TOPreal qPCR 2X premix (SYBR Green with high ROX) (Enzynomics, Daejeon, South Korea), and cDNA. Real-time PCR was performed using the ABI 7500 Fast Real time PCR system (Applied Biosystems, Waltham, MA, USA). The relative gene expression levels were calculated using the ÄÄCt method.

## O=c1c(O)c(-c2ccc(O)c(O)c2)oc2cc(O)cc(O)c12 [Q, Quercetin]
  expression level of PRDM16: increased
